Data set [1] is described as follows: Oral bioavailability in rat. The following applies: in vivo.
The conditions of data set [2]: mice, s.c. 50 mg/kg; cited from earlier work.
The subject of data set [3] is DU-145. Nature of the data set: MTT cell viability assay, DU-145. It is filed as cell-based. Particulars: DU-145, MTT, 96 hours exposure. On the procedure: All cell lines were obtained from American Type Culture Collection (Rockville, Md.) and maintained in RPMI 1640 media supplemented with 10% fetal bovine serum and 5% penicillin/streptomycin solution. Cells were grown as a monolayer in a humidified incubator (5% CO2) at 37° C. To determine the effect of the compounds on cell proliferation, cells were plated (2500 cells/well) in 96-well cell culture dishes (Corning, Inc. Corning, N.Y.). After a 24 hr attachment period, media was replaced with fresh media containing compounds (0.01 μM-100 μM) or vehicle (95% ethanol). The cells were then allowed to grow in the presence of the drugs for 96 hours. After 96 hours, relative cell viability was assessed using the MTT reagent (3-(4,5-dimethylthiazol-2-yl)-2,5-diphenyltetrazolium bromide) as described in Patel, et al. 2004^43. Experiments were carried out three times with six replicates per dose per experiment (n=18). Results were plotted using the average of each dose over all three experiments and fitted with a best-fit sigmoidal dose response variable slope curve using GraphPad Prism 4.01 (GraphPad Software, Inc.). […] Combination index (CI) was calculated as previously described^44. CI values less than 1 are considered synergistic.
A general note: Tetrazolium dyes change colour on reduction, which living cells bring about.

Data set [4] deals with PC-3 cells. The data set is described as follows: Cell cycle analysis by flow cytometry in synchronized PC-3 cells. It is filed as cell-based. Particulars: 20 μM. The method, then:
Cells were synchronized in the G1/G0 phase by maintaining them in 0.2% FBS-containing media for 96 hours. After starvation, media was replaced with normal growth media (10% FBS) containing vehicle (95% ethanol) or 20 μM VN/124-1 for 12, 18, and 24 hours. At each timepoint, cells were fixed in 70% ethanol at −20° C. for at least 24 hours. Fixed cells were then incubated with 1 mL propidium iodide (PI) staining buffer (1 mg/ml PI, 0.1% Triton-X, and 10 μg/ml RNase A dissolved in PBS) for 1 hour at room temperature and DNA content was measured by flow cytometry analysis using a FACSort flow cytometer (Becton Dickinson, San Jose, Calif.); 15,000 events were analyzed for each sample. ModFit LT version 3.1 (Verity Software House Ind., ME) was used to analyze cell cycle distribution.
(In general: Flow cytometry measures light scatter and fluorescence of single cells or particles in a stream.)

The test system of data set [5] is PC-3. Nature of the data set: MTT cell viability assay, PC-3. The following applies: MTT, 96 hours exposure. The data set is classed as cell-based. The method, then: Cells were grown as a monolayer in a humidified incubator (5% CO2) at 37° C. To determine the effect of the compounds on cell proliferation, cells were plated (2500 cells/well) in 96-well cell culture dishes (Corning, Inc. Corning, N.Y.). […] The cells were then allowed to grow in the presence of the drugs for 96 hours. […] Experiments were carried out three times with six replicates per dose per experiment (n=18). […] Combination index (CI) was calculated as previously described^44. CI values less than 1 are considered synergistic.

Data set [6] deals with PC-3 cells. The data set is described as follows: Absolute [Ca2+]i in PC-3 cells (Fura-2AM). The following applies: for average [Ca2+]i: 2 hours, Fura-2AM, control 36.49 nM. It is filed as cell-based. On the procedure:
(§1) PC-3 Cells were loaded with either fura-2 or fluo-3 indicator by incubation with 2 μM fura-2/AM or 2 μM fluo-3/AM in RPMI 1640 medium containing 10% fetal bovine serum for >60 min at room temperature. During experiments, the coverslips were mounted in a flow chamber and superfused with oxygenated Locke solution containing (in mM): 10 glucose, 136 NaCl, 5.6 KCl, 1.2 NaH2PO4, 14.3 NaHCO3, 1.2 MgCl2, and 2.2 CaCl2, pH 7.4, at room temperature (22-24° C.).
(§2) Cells loaded with fura-2 were placed in a perfusion chamber mounted on an inverted microscope (TE200; Nikon, Tokyo, Japan) equipped with a UV-transmitting objective (SuperFluor, 40×, N.A. 1.4, Nikon). Fura-2 was alternately excited by 340 nm and 380 nm light from monochrometers (Deltascan Illumination System, Photonic Technology International (PTI), South Brunswick, N.J.) and fura-2 emission was passed through a 515 nm longpass filter before detection by a cooled CCD camera (Retiga 2000R, Q-Imaging, Burnaby, Canada). For measurement of Ca^2+ transients in individual cells, coverslips with fluo-3 loaded cells were excited by the output of a 100 W mercury arc lamp that passed through a 480 nm bandpass filter (30 nm bandwidth). Fluorescence emission was passed through a 515 nm longpass filter before capture by a cooled CCD camera (Retiga 2000R, Q-Imaging). Image acquisition was performed with QCapture Pro (Q-Imaging) and analysis was performed with ImageJ (U.S. National Institutes of Health, Bethesda, Md., USA).
Fluo-3 Ca^2+ indicator measurements are reported as the fractional change in fluorescence intensity relative to baseline (ΔF/F0), which was determined as follows. Within a temporal sequence of fluorescence images, a region of interest (ROI) was drawn around each cell to be analyzed. The fluorescence signal from each cell was calculated as the pixel-averaged intensity within each ROI. In these experiments, a slight downward drift in baseline was typically observed, which was principally attributable to photo-bleaching of the indicator. In such cases, the drift was always well fit by a low-amplitude single-exponential decay. The fitted baseline value (F0) at every time point was then used to calculate ΔF/F0. ΔF/F0 values are reported as mean±SE. For fura-2 measurements, [Ca^2+]i was derived using the ratio method of Grynkiewicz et al.^46

Data set [7] has as its system PC-3 cells. Nature of the data set: Ca2+ transients in PC-3 cells (Fluo-3AM). It is filed as cell-based. The following applies: 20 μM; for transient rise in [Ca2+]i, mean ΔF/Fo: Fluo-3AM. The method, then: as §1, §2
Fluo-3 Ca^2+ indicator measurements are reported as the fractional change in fluorescence intensity relative to baseline (ΔF/F0), which was determined as follows. Within a temporal sequence of fluorescence images, a region of interest (ROI) was drawn around each cell to be analyzed. The fluorescence signal from each cell was calculated as the pixel-averaged intensity within each ROI. In these experiments, a slight downward drift in baseline was typically observed, which was principally attributable to photo-bleaching of the indicator. […]

Data set [8] has as its system PC-3 cells. The data set is described as follows: Real-time PCR (qRT-PCR) of stress response and cell cycle genes in PC-3 cells. It is filed as cell-based. Particulars: 20 μM, 24 hr. The method, then: Cells were treated, lysed and RNA collected and quantified using the same method outlined above. Cells were dosed independently on three separate days (n=3). 1 μg of total RNA was converted to cDNA using ReactionReady™ First Strand cDNA Synthesis kit (SuperArray Bioscience Corp.; Frederick, Md.) following the manufacturer's protocol. 50 ng of template cDNA was then used in subsequent real-time PCR (qRT-PCR) reactions. Template was combined with target gene specific or β-actin control RT^2 PCR Primer Sets, RT^2 Real-Time™ SYBR Green/Rox Master Mix (SuperArray Bioscience Corp.), and ddH2O for a final reaction volume of 25 μL and run on a 7900HT Fast Real-Time PCR system (Applied Biosystems; Foster City, Calif.) following the manufacturer's protocol. Fold changes were calculated using the ΔΔCt method as recommended by the manufacture's protocol.
On the technique in general: Quantitative PCR measures a nucleic acid by following its amplification.

Consider one compound from patent US9295679B2, “Prodrugs of C-17-heteroaryl steroidal CYP17 inhibitors/antiandrogens: synthesis, in vitro biological activities, pharmacokinetics and antitumor activity” (University of Maryland, Baltimore, priority 2008, dated 2016).

As usually defined, the bioavailability is dose-corrected exposure relative to a reference, in per cent. Read a high bioavailability as much systemic uptake. In general, GI50 refers to the concentration that inhibits growth by half. `C[C@]12CC[C@H](O)CC1=CC[C@@H]1[C@@H]2CC[C@]2(C)C(n3cnc4ccccc43)=CC[C@@H]12` [Compound 5, 3β-hydroxy-17-(1H-benzimidazole-1-yl)androsta-5,16-diene]: the bioavailability in data set [1] was ~10%. Besides, in data set [2], the “detectability in plasma at 8 hours” value is “neither was detectable” and the peak plasma levels is on record as 16.82 ng/mL. For the same compound, the GI90 in data set [3] was 15.95 µM. For the same compound, the GI50 in data set [3] (Homo sapiens) worked out at 7.55 µM. Further, the “exit from G1 phase of the cell cycle” value in data set [4] was “prevent the exit from G1 phase”. Moreover, the GI50 in data set [5] (Homo sapiens) came out at 7.82 µM. In data set [5], the GI90 amounted to 18.62 µM. Further, the “effect on [Ca2+]i” value in data set [6] (1 μM Compound 5, 2 hours) is “did not have a significant effect”. In data set [6] (5 μM), the “average [Ca2+]i” value is on record as 79.13 nM. Besides, the “average [Ca2+]i” value in data set [6] (10 μM) is on record as 96.63 nM. Moreover, the “average [Ca2+]i” value in data set [6] (20 μM) is recorded as 79.89 nM. The “transient rise in [Ca2+]i, mean ΔF/Fo” value in data set [7] (extracellular calcium present) came out at 0.613. In addition, the “transient rise in [Ca2+]i, mean ΔF/Fo” value in data set [7] (extracellular calcium removed) was 0.967. Also, the “Ca2+ transient after depletion of ER calcium stores” value in data set [7] (pretreatment with SERCA inhibitor CPA) is on record as “completely abolished”. Moreover, in data set [8], the CHOP gene expression entry was “strongly up-regulated”, the “activating transcription factor 4 (ATF4) gene expression” value is on record as “up-regulated”, the “asparagines synthetase (ASNS) gene expression” value is reported as “up-regulated” and the “cyclin D1 mRNA levels” value is reported as “not affected”. The “cyclin E2 mRNA” value in data set [8] is “significantly reduced”.
